This test addresses T1, A5-LOX (soybean); arachidonate-5-lipoxygenase.
T1 construct: gene LOX1.1; most likely lipoxygenase-1
Kind of test: spectrophotometric, absorbance at […] nm. The test is classed as biochemical, Glycine max. The settings on record: linoleic acid substrate ([…] μL of […]), sodium phosphate pH […] °C, […] min preincubation.

For the molecule `O=c1cc(-c2ccccc2)oc2cc(O)c(O)c(O)c12` [Baicalein], the “Anti-A5-LOX activity IC50 (μg mL^- 1)” value turned out to be 1.76 ± 0.15 μg mL^− 1.

The values are drawn from article PMC6169004, “In vitro pro-inflammatory enzyme inhibition and anti-oxidant potential of selected Sri Lankan medicinal plants” (BMC Complementary and Alternative Medicine, 2018).
